Assay results from US20040110802A1, “Antibacterial benzoic acid derivatives” (priority 2002, published 2004).
Values after ≈ are worked out from the molar mass of the structure shown.

test system: SAUR 9218; assay: MIC Test Method, standard agar dilution; assay type: cell-based; settings: agar dilution, Mueller Hinton agar, incubated overnight at 35° C.; lowest concentration that inhibits visible growth; read-out: SAUR 9218 MIC
Procedure, shortened: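 MIC (μg/ml) was read as the lowest drug level without visible growth of SAUR 9218 after overnight incubation at 35 °C. Inocula of about 10^4 to 10^5 cells per spot were applied to Mueller Hinton agar containing 2-fold serial compound dilutions.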

MIC [µg/mL] | SMILES
0.5 (≈ 1.22 µM) | O=C(O)c1cc(Cl)ccc1NC(=O)c1cc2ccccc2n1CC1CCCCC1
0.5 (≈ 1.07 µM) | COc1ccccc1CC(=O)Nc1cccc2cc(C(=O)Nc3ccc(C#N)cc3C(=O)O)[nH]c12
16 (≈ 42.9 µM) | COCCn1c(C(=O)Nc2ccc(Cl)cc2C(=O)O)cc2ccccc21
4 (≈ 11.1 µM) | O=C(O)c1cc(Br)ccc1NC(=O)c1c[nH]c2ccccc12
4 (≈ 9.45 µM) | N#Cc1ccc(NC(=O)c2cc3ccccc3n2CCCc2ccccc2)c(C(=O)O)c1
4 (≈ 8.94 µM) | Cn1c(C(=O)Nc2ccc(C#N)cc2C(=O)O)cc2ccc(NC(=O)N3CCOCC3)cc21
8 (≈ 17.4 µM) | O=C(O)c1cc(Br)ccc1NC(=O)c1cc(SCc2ccccc2)cc[n+]1[O-]
0.125 (≈ 0.335 µM) | COc1ccccc1-c1cc(C(=O)Nc2ccc(Cl)cc2C(=O)O)no1
64 (≈ 139 µM) | CCCCN(CC#N)S(=O)(=O)c1cc(C(=O)Nc2ccc(C#N)cc2C(=O)O)sc1C
4 (≈ 8.86 µM) | Cn1c(C(=O)Nc2ccc(C#N)cc2C(=O)O)cc2cccc(NC(=O)NCC(O)CO)c21 (stereo not shown)
0.125 (≈ 0.331 µM) | CC(C)Oc1cccc2cc(C(=O)Nc3ccc(C#N)cc3C(=O)O)n(C)c12
4 (≈ 12.2 µM) | Cn1c(C(=O)Nc2ccc(Cl)cc2C(=O)O)cc2ccccc21
0.25 (≈ 0.55 µM) | CCCCS(=O)(=O)Nc1cccc2cc(C(=O)Nc3ccc(C#N)cc3C(=O)O)n(C)c12
0.5 (≈ 0.872 µM) | N#Cc1ccc(NC(=O)c2cc3cccc(NC(=O)c4cccc(S(=O)(=O)N5CCOCC5)c4)c3[nH]2)c(C(=O)O)c1
0.5 (≈ 1.09 µM) | O=C(COc1ccccc1-c1cc(C(=O)Nc2ccc(O)cc2C(=O)O)no1)c1ccccc1
64 (≈ 165 µM) | O=C(Nc1ccc(Br)cc1C(=O)O)c1ccc(Br)o1
8 (≈ 23.1 µM) | Cn1cccc1-c1cncc(C(=O)Nc2ccc(C#N)cc2C(=O)O)c1
> 128 | COCOCC(OCOC)C(Cc1cnc(C(=O)Nc2ccc(Br)cc2C(=O)O)cn1)OC (stereo not shown)
4 (≈ 10.2 µM) | COCC(=O)Nc1cccc2cc(C(=O)Nc3ccc(C#N)cc3C(=O)O)[nH]c12
0.06 (≈ 0.133 µM) | CCCCCCCSc1ccc(C(=O)Nc2ccc(Br)cc2C(=O)O)nn1
0.125 (≈ 0.315 µM) | Cc1ccccc1-c1ccc2onc(C(=O)Nc3ccc(C#N)cc3C(=O)O)c2c1
0.5 (≈ 1.24 µM) | N#Cc1ccc(NC(=O)c2cc3cccc(NC(=O)C4CCC4)c3[nH]2)c(C(=O)O)c1
16 (≈ 49.8 µM) | Cc1coc2cnc(C(=O)Nc3ccc(C#N)cc3C(=O)O)cc12
0.25 (≈ 0.519 µM) | N#Cc1ccc(NC(=O)c2ccc3c(c2)S(=O)(=O)N(c2ccc(Cl)cc2)CC3)c(C(=O)O)c1

MIC [µg/mL] | SMILES
0.125 (≈ 0.296 µM) | O=C(Nc1ccc(Br)cc1C(=O)O)c1cc(-c2ccccc2Cl)on1
0.25 (≈ 0.497 µM) | N#Cc1ccc(NC(=O)c2cc3cccc(NC(=O)c4ccc(Br)cc4)c3[nH]2)c(C(=O)O)c1
0.125 (≈ 0.283 µM) | CCN(CC)S(=O)(=O)c1ccc2onc(C(=O)Nc3ccc(C#N)cc3C(=O)O)c2c1
1 (≈ 2.62 µM) | N#Cc1ccc(NC(=O)c2ccc(SCc3ncon3)nc2)c(C(=O)O)c1
32 (≈ 82 µM) | COc1cccc2cc(C(=O)Nc3ccc(Br)cc3C(=O)O)oc12
0.125 (≈ 0.407 µM) | N#Cc1ccc(NC(=O)c2noc3ccccc23)c(C(=O)O)c1
0.125 (≈ 0.267 µM) | Cn1c(C(=O)Nc2ccc(Cl)cc2C(=O)O)cc2cccc(S(=O)(=O)c3ccccc3)c21
0.5 (≈ 1.11 µM) | COC(=O)CCCC(=O)Nc1cccc2cc(C(=O)Nc3ccc(C#N)cc3C(=O)O)[nH]c12
0.25 (≈ 0.627 µM) | CCCCCCCSc1cnc(C(=O)Nc2ccc(C#N)cc2C(=O)O)cn1
0.125 (≈ 0.333 µM) | N#Cc1ccc(NC(=O)c2cc(CCCc3ccccc3)on2)c(C(=O)O)c1
8 (≈ 16.5 µM) | CCCN(CCC)S(=O)(=O)c1ccc(C(=O)Nc2ccc(Br)cc2C(=O)O)cn1
0.25 (≈ 0.671 µM) | COc1ccc(-c2cc(C(=O)Nc3ccc(Cl)cc3C(=O)O)no2)cc1
16 (≈ 46.3 µM) | COCc1onc(C(=O)Nc2ccc(C#N)cc2C(=O)O)c1COC
1 (≈ 2.34 µM) | O=C(Nc1ccc(Br)cc1-c1noc(=O)[nH]1)c1cc(-c2ccccc2)on1
0.25 (≈ 0.584 µM) | Cn1c(C(=O)Nc2ccc(C#N)cc2C(=O)O)cc2cccc(OCC(O)CCl)c21 (stereo not shown)
16 (≈ 27.1 µM) | Cc1sc(C(=O)Nc2ccc(Br)cc2C(=O)O)cc1S(=O)(=O)N1CC2CC1CN2Cc1ccccc1 (stereo not shown)
4 (≈ 8.31 µM) | Cc1sc(C(=O)Nc2ccc(C#N)cc2C(=O)O)cc1S(=O)(=O)N1CCc2ccccc2C1
0.25 (≈ 0.581 µM) | N#Cc1ccc(NC(=O)c2cc3cccc(NC(=O)c4cccs4)c3[nH]2)c(C(=O)O)c1
0.25 (≈ 0.564 µM) | COc1ccc(OC)c(-c2ccc3onc(C(=O)Nc4ccc(C#N)cc4C(=O)O)c3c2)c1
> 128 | CCCCc1ccc(C(=O)Nc2ccc(Br)cc2C(=O)O)nc1
1 (≈ 2.53 µM) | CC(C)Sc1ccc(C(=O)Nc2ccc(Br)cc2C(=O)O)cn1
16 (≈ 43.9 µM) | O=C(Nc1ccc(Br)cc1C(=O)O)c1ccc2c(c1)OCO2
0.5 (≈ 1.2 µM) | COc1ccc(-c2cc(C(=O)Nc3ccc(Br)cc3C(=O)O)no2)cc1
0.125 (≈ 0.304 µM) | N#Cc1ccc(NC(=O)c2cc3ccc(OCc4ccccc4)cc3[nH]2)c(C(=O)O)c1

MIC [µg/mL] | SMILES
> 128 | N#Cc1ccc(NC(=O)c2cc(-c3ccccc3Oc3ccccc3-c3ccccc3)on2)c(C(=O)O)c1
> 128 | CCCCN(CCCC)CCCNS(=O)(=O)c1cc(C(=O)Nc2ccc(Br)cc2C(=O)O)cs1
1 (≈ 3.19 µM) | CC(C)(C)c1cc(C(=O)Nc2ccc(C#N)cc2C(=O)O)no1
2 (≈ 4.51 µM) | O=C(Nc1ccc(Br)cc1C(=O)O)c1cc(SCc2ccccc2)ccn1
32 (≈ 55.3 µM) | Cc1sc(C(=O)Nc2ccc(C#N)cc2C(=O)O)cc1S(=O)(=O)N1CCN(c2cccc(C(F)(F)F)c2)CC1
0.25 (≈ 0.503 µM) | N#Cc1ccc(NC(=O)c2cc(-c3ccccc3OCC3COc4ccccc4O3)on2)c(C(=O)O)c1 (stereo not shown)
4 (≈ 9.54 µM) | CCC(CC)Oc1ccccc1-c1cc(C(=O)Nc2ccc(C#N)cc2C(=O)O)no1
1 (≈ 2.53 µM) | N#Cc1ccc(NC(=O)c2cnc(SCc3ccccc3)s2)c(C(=O)O)c1
4 (≈ 7.2 µM) | Cc1sc(C(=O)Nc2ccc(C#N)cc2C(=O)O)cc1S(=O)(=O)N1CCN(c2ccc([N+](=O)[O-])cc2)CC1
0.25 (≈ 0.504 µM) | CCN(CC)S(=O)(=O)c1ccc2onc(C(=O)Nc3ccc(Br)cc3C(=O)O)c2c1
> 128 | N#Cc1ccc(NC(=O)c2ccoc2)c(C(=O)O)c1
0.5 (≈ 1.16 µM) | Cn1c(C(=O)Nc2ccc(C#N)cc2C(=O)O)cc2ccc(NC(=O)c3ccno3)cc21
2 (≈ 5.54 µM) | O=C(O)c1cc(Br)ccc1NC(=O)c1onc2ccccc12
0.125 (≈ 0.319 µM) | CC(C)Oc1ccccc1-c1cc(C(=O)Nc2ccc(C#N)cc2C(=O)O)no1
16 (≈ 40.9 µM) | CCC(C)Oc1ccc2cc(C(=O)Nc3ccc(C#N)cc3C(=O)O)n(C)c2c1 (stereo not shown)
32 (≈ 73.5 µM) | Cc1sc(C(=O)Nc2ccc(C#N)cc2C(=O)O)cc1S(=O)(=O)N1CCOCC1
1 (≈ 1.91 µM) | CN(c1ccc(Cl)cc1)S(=O)(=O)c1cncc(C(=O)Nc2ccc(Br)cc2C(=O)O)c1
0.25 (≈ 0.593 µM) | COCC(C)Oc1ccccc1-c1cc(C(=O)Nc2ccc(C#N)cc2C(=O)O)no1 (stereo not shown)
16 (≈ 46.3 µM) | N#Cc1ccc(NC(=O)c2cncc(-c3cnccn3)c2)c(C(=O)O)c1
0.5 (≈ 1.41 µM) | CCC(C)Sc1ccc(C(=O)Nc2ccc(C#N)cc2C(=O)O)cn1 (stereo not shown)
0.25 (≈ 0.589 µM) | CCCCCSc1cnc(C(=O)Nc2ccc(Br)cc2C(=O)O)cn1
0.25 (≈ 0.71 µM) | N#Cc1ccc(NC(=O)c2noc3ccc([N+](=O)[O-])cc23)c(C(=O)O)c1
0.5 (≈ 1.07 µM) | CCOCCOCCOc1ccccc1-c1cc(C(=O)Nc2ccc(C#N)cc2C(=O)O)no1

SMILES | MIC [µg/mL]
CC(C)[Si](c1cc(C(=O)Nc2ccc(C#N)cc2C(=O)O)no1)(C(C)C)C(C)C | 0.5 (≈ 1.21 µM)

same assay, conditions: read-out: SAUR 9218 MIC

SMILES | MIC [µg/mL]
N#Cc1ccc(NC(=O)c2cc3cccc(NC(=O)CF)c3[nH]2)c(C(=O)O)c1 | 2 (≈ 5.26 µM)
